According to patent US20030181449A1 (priority 2003, published 2003):

Experiments:
[1] = molecular target: T1, NMDA receptor glycine site (Rattus norvegicus, UniProt P35439); assay: Test A: Inhibition of binding of [3H]-MDL105,519 to brain membranes; conditions: inhibition of 1.2 nM [3H]MDL105,519 binding, brain membranes (rat or human not given)
T1 construct: The rat brain membranes used in the experiments were obtained from Analytical Biological Services Inc; tissue Analytical Biological Services Inc; host or cells: rat brain membranes (cerebral cortex and hippocampus, male Sprague Dawley rats)
Source text: Test A: Inhibition of Binding of [^3H]-MDL105,519:
Binding of compounds to the NMDA receptor glycine site may be assessed by measuring the ability of test compounds to inhibit the binding of tritiated MDL105,519 to brain membranes bearing the receptor.
Briefly, fresh brain tissue including cerebral cortex and hippocampus from male Sprague Dawley rats was homogenized in 0.32 M sucrose and centrifuged at low speed to separate cellular membranes from other cellular components. The membranes were then washed 3 times using deionized water, followed by treatment with 0.04% Triton X-100. Finally, membranes were washed six times in 50 mM Tris citrate buffer, pH 7.4, and frozen at −80° C. until use.
[^3H]MDL105,519 (72 Ci/mmol) was purchased from Amersham. Cold MDL105,519 was purchased from Sigma/RBI. […] On the day of the experiment, brain membranes were thawed at room temperature and suspended in 50 mM tris acetate buffer, pH 7.4 (“TAB”). Seventy-five micro grams per milliliter protein (by using the BioRad dye) were used for competition binding. The experiments were carried out using 96-well plates. […] Non specific binding was determined by using 100 μM of unlabeled MDL105,519. […] After incubation, unbound [^3H]MDL105,519 was removed by filtration onto GF/B Unifilter plates using a Packard harvester. Filters were washed four times with ice cold TAB (total of 1.2 mL buffer). The plates were dried overnight at room temperature and bound radioactivity was measured on a Packard TopCount after the addition of 45 μL per well of the MICROSCINT O.
Human Brain Membranes: Human brain membranes were obtained from Analytical Biological Services Inc., and assays were performed as described for rat membranes.
Data analysis: Data was analyzed using a Microsoft Excel spreadsheet and GraphPad Prizm software and potency of compounds is expressed as the Ki (nM).

[2] = system: formalin-induced nociceptive behaviors in rats; assay: Test B: Formalin test (formalin-induced paw flinches); assay type: in vivo, rat; conditions: dose 200 (unit not given), dosed three hours prior to formalin
Source text: The Formalin test is an assay that assesses the capacity of a compound to inhibit formalin-induced nociceptive behaviors in rats (D. Dubuisson, et al., Pain 4, 161-174 (1977); H. Wheeler-Aceto et al., Psychopharmacology 104, 3544 (1991); T. J. Coderre, et al., Pain 54, 43-50 (1993)). In the test, two distinctive phases of formalin-induced behaviors are observed. A first phase response, caused by acute nociception to the noxious chemical (formalin) injected into the paw, occurs between zero and five minutes. A quiescent period of 5 to 15 min post injection follows. After the quiescent period a second phase response, caused by sensitization of the central neurons in the dorsal horn, occurs after 15 minutes and lasts up to 60 minutes. Sensitization of the central neurons in the spine augments a noxious afferent input and causes a stronger pain barrage to be transmitted to the brain. Therefore, inhibition of the second phase response indicates a central mechanism of drug action.
The procedure for the formalin test is as follows: male rats are placed in a plexiglass chamber and observed for 30-45 min. to observe their baseline activity. Animals are either pretreated with vehicle or with different doses of a test compound. Animals are dosed with vehicle or test compound three hours prior to injection of 0.05 mL of sterile 1% formalin under the dorsal skin of a hind paw. The number of paw flinches (responses) during the first phase (0-5 min.) and the second phase (20-35 min.) are scored and recorded. Flinch response is compared with the mean score of a saline control group and calculated as percentage inhibition. The ED50 is the dose of compound which produces 50% inhibition of nociceptive response in the first or second phase response. First phase responses may be inhibited by compounds that act peripherally and by compounds that act centrally. Second phase response are inhibited by centrally active compounds.
Student's t-test was used for statistical analysis to determine the significance of compound effects. Data are reported as a dose that yielded a % inhibition of a response.

[3] = system: CCI rats (thermal hyperalgesia); assay: Test C: Neuropathic pain model (Chronic Constriction Injury), thermal hyperalgesia, paw withdrawal latency; assay type: in vivo, rat; conditions: oral
Source text: Test C: Neuropathic Pain Model (Chronic Constriction Injury):
The anti-hyperalgesic properties of a compound may be tested with the Chronic Constriction Injury (“CCI”) model. The test is a model for neuropathic pain associated with nerve injuries that can arise directly from trauma and compression, or indirectly from a wide range of diseases such as infection, cancer, metabolic conditions, toxins, nutritional deficiencies, immunological dysfunction, and musculoskeletal changes. In the model a unilateral peripheral hyperalgesia is produced in rats by nerve ligation (G. J. Bennett, et al., Pain 33, 87-107 (1988)).
Procedurally, Sprague-Dawley rats (250-350 g) are anesthetized with sodium pentobarbital and the common sciatic nerve is exposed at the level of the mid thigh by blunt dissection through the biceps femoris. A section of nerve (about 7 mm), proximal to the sciatic trifucation, is freed of tissue and ligated at four positions with chromic gut suture. The suture is tied with about 1 mm spacing between ligatures. The incision is closed in layers and the animals are allowed to recuperate. Thermal hyperalgesia is measured using a paw-withdrawal test (K. Hargreaves, et al., Pain 32, 77-88 (1988)). To perform the test, animals are habituated on an elevated glass floor. A radiant heat source is aimed at the mid-plantar hindpaw (sciatic nerve territory) through the glass floor with a 20 second cut-off used to prevent injury to the skin. The latencies for the withdrawal reflex in both hind paws are recorded.
Injured paws with ligated nerves show shorter paw withdrawal latencies compared to the uninjured or sham operated paws. Responses to test compounds are evaluated at different times after oral administration to determine the onset and duration of compound effect. When performing the test, groups of CCI rats receive either vehicle or the test compound orally three times daily for 5 days. Paw withdrawal latencies are measured each day 10 min before and 2 or 3 hr. after the first daily dose. Compound efficacy is expressed as mean percentage decrease of hyperalgesia compared to that of vehicle-treated animals, calculated as follows:
(Mean of vehicle group−Mean of compound group)×100/(Mean of vehicle group).
Data analysis was performed by the multiple means comparison test (Dunnett's test) and results are expressed and compound potencies are expressed as the MED (minimum effective dose), in mg/Kg/day, that yields a percent (%) decrease in hyperalgesia that is statistically significant.

Ki [1]: 39.9 nM
melting point: 187 to 189 °C
SMILES: Cc1cc(C)c(-n2nc(O)c3[nH]c4cc(Cl)ccc4c(=O)c3c2=O)c(C)c1 [Ex. 1, 7-Chloro-4-hydroxy-2-(2,4,6-trimethylphenyl)-1,2,5,10-tetrahydropyridazino[4,5-b]quinoline-1,10-dione]
Test B First phase Dose (% Inh.): % inhibition of nociceptive response ([2]; first phase (0-5 min)): 200 (43%)
Test B Second phase Dose (% Inh.): % inhibition of nociceptive response ([2]; second phase (20-35 min)): 200 (54%)
Test C (% Inh.): percent decrease in hyperalgesia ([3]; at the MED): 82%
Test C MED (minimum effective dose) ([3]; three times daily for 5 days): 15 mg/kg/day
